IC50 data for 30 compounds are collected here from patent publication US20250009745A1, “CDK INHIBITOR” (SHANGHAI QILU PHARMACEUTICAL RESEARCH AND DEVELOPMENT …, priority 2021, published 2025).

Holding throughout (test): CDK enzymology experiment in vitro, capillary mobility shift assay (MSA)
Holding throughout (type): biochemical

In one assay the target is T1, CDK2 (Homo sapiens, UniProt P24941).
T1 construct: purchased Carna Company
To be noted: read-out: CDK2 (nM) inhibitory IC50. The essentials: (§1)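 Recombinant kinases tested against peptide substrates in 1× kinase buffer, with compound added as a 100-fold DMSO stock. Top concentration 1, 10 or 30 μM, 3-fold dilutions over 10 points, in duplicate. Substrate conversion read by Caliper EZ Reader, normalised to no-enzyme and no-compound controls, and IC50 fitted with a variable-slope log(inhibitor)–response model.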

The target of the next assay is T2, CDK4 (Homo sapiens, UniProt P11802).
T2 construct: purchased Carna Company
To be noted: read-out: CDK4 (nM) inhibitory IC50. A digest of the protocol: as §1

Another assay concerns the target T3, CDK7 (Homo sapiens, UniProt P50613).
T3 construct: purchased Carna Company
To be noted: read-out: CDK7 (nM) inhibitory IC50. The essentials: as §1

Another assay deals with T4, CDK6 (Homo sapiens, UniProt Q00534).
T4 construct: purchased Carna Company
To be noted: read-out: CDK6 (nM) inhibitory IC50. As to the method:
CDK1/CDK2/CDK4/CDK6/CDK7/CDK9 were purchased from Carna Company; Carliper substrate CTD3/substrate 18/substrate 8 were purchased from Gil Biochemical Company; Dinaciclib/Palbociclib were purchased from Selleckchem Company; DMSO was purchased from Sigma Company; 384-well plates were purchased from Corning Company.
• (1) Preparation of 1×Kinase buffer. • (2) Preparation of compound concentration gradient: Test concentration of the test compound was started at 1 μM, 10 μM or 30 μM, 3-fold dilution, 10 concentrations, detected in duplicate. […] Liquid handler Echo 550 was used to transfer 250 nL of 100-fold final concentration of the compound to the target plate 384-well plate. […] The 384-well plate was centrifuged at 1000 rpm for 30 seconds, and shaken to mix uniformly. • (10) The conversion rate was read with Caliper EZ Reader.
Where, conversion %_sample is the readings of conversion rate of the sample; conversion %_min: the average value of negative control wells, representing the readings of conversion rate of wells without enzyme activity; conversion %_max: the average value of positive control wells, representing the readings of conversion rate of wells without compound inhibition.
Taking the log value of the concentration as the X-axis, and the percentage inhibition rate as the Y-axis, the dose-effect curve was fitted using the log(inhibitor) vs. response—Variable slope of the analysis software GraphPad Prism 5 so as to obtain the IC50 value of each compound on the enzyme activity.
Y=Bottom+(Top−Bottom)/(1+10^((Log IC50−X)*HillSlope)). Calculation formula: […]

For the next assay, the target named is T5, CDK1 (Homo sapiens, UniProt P06493).
T5 construct: purchased Carna Company
To be noted: read-out: CDK1 (nM) inhibitory IC50. The essentials:
as §1

The target in a further assay is T6, CDK9 (Homo sapiens, UniProt P50750).
T6 construct: purchased Carna Company
To be noted: read-out: CDK9 (nM) inhibitory IC50. The essentials: as §1

T2 sequence (P11802 whole entry): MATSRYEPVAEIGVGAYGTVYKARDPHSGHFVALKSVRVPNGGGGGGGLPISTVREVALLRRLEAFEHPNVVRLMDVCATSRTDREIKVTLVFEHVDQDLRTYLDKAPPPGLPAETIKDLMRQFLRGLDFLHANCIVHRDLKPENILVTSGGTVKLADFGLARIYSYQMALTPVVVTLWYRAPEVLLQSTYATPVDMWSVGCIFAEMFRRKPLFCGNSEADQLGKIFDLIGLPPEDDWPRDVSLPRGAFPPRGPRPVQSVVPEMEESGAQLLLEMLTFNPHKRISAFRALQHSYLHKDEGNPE
T2 sequence (P30281 whole entry partner): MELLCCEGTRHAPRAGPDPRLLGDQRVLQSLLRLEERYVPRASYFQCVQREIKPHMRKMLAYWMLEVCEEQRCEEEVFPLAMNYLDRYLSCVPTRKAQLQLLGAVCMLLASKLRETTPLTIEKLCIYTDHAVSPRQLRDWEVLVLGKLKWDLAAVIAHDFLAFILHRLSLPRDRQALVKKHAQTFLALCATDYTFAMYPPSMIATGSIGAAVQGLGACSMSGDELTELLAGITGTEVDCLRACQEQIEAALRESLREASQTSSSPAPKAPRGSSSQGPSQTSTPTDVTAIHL
T3 sequence (P50613 whole entry): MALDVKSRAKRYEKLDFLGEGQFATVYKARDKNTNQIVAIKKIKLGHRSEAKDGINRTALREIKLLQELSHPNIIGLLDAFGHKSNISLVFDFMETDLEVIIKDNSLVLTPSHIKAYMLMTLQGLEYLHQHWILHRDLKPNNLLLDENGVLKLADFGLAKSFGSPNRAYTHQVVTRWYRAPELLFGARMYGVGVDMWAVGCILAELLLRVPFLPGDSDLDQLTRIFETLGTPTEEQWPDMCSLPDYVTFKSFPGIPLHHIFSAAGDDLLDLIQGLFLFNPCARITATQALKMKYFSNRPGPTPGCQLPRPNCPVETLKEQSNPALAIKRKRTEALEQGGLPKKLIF
T3 sequence (P51946 whole entry partner): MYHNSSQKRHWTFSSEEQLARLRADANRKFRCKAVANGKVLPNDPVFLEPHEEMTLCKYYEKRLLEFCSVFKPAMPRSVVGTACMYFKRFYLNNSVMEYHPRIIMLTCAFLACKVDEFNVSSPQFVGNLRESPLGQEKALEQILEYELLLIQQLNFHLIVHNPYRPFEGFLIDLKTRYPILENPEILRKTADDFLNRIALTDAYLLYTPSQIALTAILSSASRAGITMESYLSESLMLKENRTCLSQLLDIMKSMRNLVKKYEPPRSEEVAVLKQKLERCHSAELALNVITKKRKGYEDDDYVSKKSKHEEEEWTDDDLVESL
T3 sequence (P51948 whole entry partner): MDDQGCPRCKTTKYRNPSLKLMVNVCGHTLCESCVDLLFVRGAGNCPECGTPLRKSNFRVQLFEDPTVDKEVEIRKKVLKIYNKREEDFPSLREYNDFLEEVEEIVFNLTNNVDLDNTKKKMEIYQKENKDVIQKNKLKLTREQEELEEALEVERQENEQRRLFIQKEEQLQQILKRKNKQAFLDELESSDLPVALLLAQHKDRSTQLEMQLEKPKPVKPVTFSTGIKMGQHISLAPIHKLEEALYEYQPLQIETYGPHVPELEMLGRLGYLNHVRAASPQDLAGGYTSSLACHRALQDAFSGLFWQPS
T5 sequence (P06493 whole entry): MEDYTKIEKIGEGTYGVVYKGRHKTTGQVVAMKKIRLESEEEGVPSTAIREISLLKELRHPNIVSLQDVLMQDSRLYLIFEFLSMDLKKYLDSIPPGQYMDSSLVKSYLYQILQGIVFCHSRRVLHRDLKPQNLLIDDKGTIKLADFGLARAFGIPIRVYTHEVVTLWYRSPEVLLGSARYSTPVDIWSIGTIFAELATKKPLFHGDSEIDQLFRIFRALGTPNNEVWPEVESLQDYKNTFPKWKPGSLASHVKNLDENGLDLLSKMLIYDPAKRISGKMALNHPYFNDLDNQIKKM
T5 sequence (P14635 whole entry partner): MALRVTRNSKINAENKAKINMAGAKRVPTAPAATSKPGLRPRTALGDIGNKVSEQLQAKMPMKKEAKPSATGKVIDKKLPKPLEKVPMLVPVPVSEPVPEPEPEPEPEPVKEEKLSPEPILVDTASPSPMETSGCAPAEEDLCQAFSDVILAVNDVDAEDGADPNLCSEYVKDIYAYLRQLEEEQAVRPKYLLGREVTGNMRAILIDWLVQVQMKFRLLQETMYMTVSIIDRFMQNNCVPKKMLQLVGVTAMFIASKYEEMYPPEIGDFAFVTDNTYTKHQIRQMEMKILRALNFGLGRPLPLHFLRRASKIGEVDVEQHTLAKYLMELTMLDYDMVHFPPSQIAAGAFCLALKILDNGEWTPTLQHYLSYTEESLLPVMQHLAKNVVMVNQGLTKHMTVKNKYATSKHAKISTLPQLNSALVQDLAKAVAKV
T6 sequence (P50750 whole entry): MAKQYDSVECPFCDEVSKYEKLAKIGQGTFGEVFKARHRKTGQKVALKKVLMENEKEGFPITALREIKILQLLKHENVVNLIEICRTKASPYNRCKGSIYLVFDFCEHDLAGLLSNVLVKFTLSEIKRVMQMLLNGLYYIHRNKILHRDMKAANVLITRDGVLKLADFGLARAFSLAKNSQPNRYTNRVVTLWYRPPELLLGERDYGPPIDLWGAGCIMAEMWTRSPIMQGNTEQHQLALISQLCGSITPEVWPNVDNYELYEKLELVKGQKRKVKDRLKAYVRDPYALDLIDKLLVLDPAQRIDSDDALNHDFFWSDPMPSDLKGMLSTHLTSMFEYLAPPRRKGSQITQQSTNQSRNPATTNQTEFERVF
T6 sequence (O60563 whole entry partner): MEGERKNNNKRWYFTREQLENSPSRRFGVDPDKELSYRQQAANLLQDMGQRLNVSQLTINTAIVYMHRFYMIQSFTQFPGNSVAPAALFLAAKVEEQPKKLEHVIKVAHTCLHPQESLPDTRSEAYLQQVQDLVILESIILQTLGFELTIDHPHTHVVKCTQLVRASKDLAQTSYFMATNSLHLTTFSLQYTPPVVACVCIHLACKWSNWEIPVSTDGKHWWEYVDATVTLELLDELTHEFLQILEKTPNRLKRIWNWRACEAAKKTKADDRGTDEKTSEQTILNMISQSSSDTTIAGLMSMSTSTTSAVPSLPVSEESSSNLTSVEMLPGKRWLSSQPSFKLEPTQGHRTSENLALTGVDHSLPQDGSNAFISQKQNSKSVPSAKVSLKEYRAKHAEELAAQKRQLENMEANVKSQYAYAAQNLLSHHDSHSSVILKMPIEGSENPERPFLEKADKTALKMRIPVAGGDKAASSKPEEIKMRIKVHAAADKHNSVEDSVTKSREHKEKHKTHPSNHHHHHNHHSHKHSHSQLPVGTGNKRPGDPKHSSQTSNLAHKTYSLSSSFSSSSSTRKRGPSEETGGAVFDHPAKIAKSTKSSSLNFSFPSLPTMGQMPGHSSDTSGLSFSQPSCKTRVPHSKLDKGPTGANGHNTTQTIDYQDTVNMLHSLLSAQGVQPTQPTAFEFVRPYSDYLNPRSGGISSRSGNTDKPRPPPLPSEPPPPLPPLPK
T4 sequence (Q00534 whole entry): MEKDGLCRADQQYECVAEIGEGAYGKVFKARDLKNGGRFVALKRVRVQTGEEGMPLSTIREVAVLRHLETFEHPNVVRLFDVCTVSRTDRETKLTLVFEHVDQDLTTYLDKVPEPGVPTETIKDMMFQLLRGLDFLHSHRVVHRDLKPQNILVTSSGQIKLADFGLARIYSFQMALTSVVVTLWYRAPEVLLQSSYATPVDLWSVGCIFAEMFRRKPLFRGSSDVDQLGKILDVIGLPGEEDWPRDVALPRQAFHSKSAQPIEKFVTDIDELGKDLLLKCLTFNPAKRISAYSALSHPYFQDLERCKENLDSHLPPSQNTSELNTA
T4 sequence (P30281 whole entry partner): as the sequence (P30281 whole entry partner) above

Turning to `O=S(=O)(c1ccc(Br)cc1)N1CCC(Nc2ncc(C(F)(F)F)c(C=C3CCCC3)n2)CC1` [Compound 200], the values for the 50% inhibitory concentration (IC50) at CDK2, at CDK4 and on CDK7 were 10 to 50 nM, 100 to 1000 nM and 50 to 100 nM, respectively.

As for `Cn1cc(S(=O)(=O)N2CCC(Nc3ncc(C(F)(F)F)c(NC4CCCC4)n3)CC2)cn1` [Compound 32], the half-inhibitory concentration (IC50) (in general, the midpoint of a concentration-inhibition curve) at CDK6 was in the range of 10 to 50 nM; at CDK2, 0.5 to 2.5 nM; at CDK4 it was 10 to 50 nM; at CDK1 it was 10 to 50 nM.

In the case of `CS(=O)(=O)N1CCC(Nc2cc(NC3CCCC3)c(C#N)cn2)CC1` [Example 2], the IC50 on CDK6 was 10 to 50 nM; at CDK2, 10 to 50 nM; at CDK4, 10 to 50 nM; on CDK1 it was 100 to 1000 nM.

For the compound `O=S(=O)(c1ccc([C@@H]2CCCNC2)cc1)N1CCC(Nc2ncc(C(F)(F)F)c(O[C@H]3CCOC3)n2)CC1` (single isomer, unassigned) [Example 114], the IC50 is 0.5 to 2.5 nM on CDK6; less than 0.5 nM on CDK2; 0.5 to 2.5 nM at CDK4; 2.5 to 10 nM on CDK1; 100 to 1000 nM on CDK9; 2.5 to 10 nM at CDK7.

Take `Cn1cnc(S(=O)(=O)N2CCC(Nc3ncc(C(F)(F)F)c(NC4CCCC4)n3)CC2)c1` [Compound 35]: the IC50 on CDK6 fell in the range of 50 to 100 nM; on CDK2, 0.5 to 2.5 nM; on CDK4, 10 to 50 nM; on CDK1, 10 to 50 nM.

As to `CC1(O)CCN(c2ccc(S(=O)(=O)N3CCC(Nc4ncc(C(F)(F)F)c(O[C@H]5CCOC5)n4)CC3)cc2)CC1` [Compound 133], the half-maximal inhibitory concentration (IC50) on CDK6 is 0.5 to 2.5 nM; at CDK2, less than 0.5 nM; on CDK4, 0.5 to 2.5 nM; at CDK1, 2.5 to 10 nM; on CDK9 it was 50 to 100 nM; on CDK7, 10 to 50 nM.

As for `Cn1cc(S(=O)(=O)N2CCC(Nc3ncc(C#N)c(N[C@H]4CCOC4)n3)CC2)cn1` [Compound 44], the IC50 on CDK6 is 50 to 100 nM; on CDK2, 2.5 to 10 nM; at CDK4 it was 50 to 100 nM; at CDK1, 100 to 1000 nM; on CDK9, greater than 1000 nM; on CDK7, 100 to 1000 nM.

For the compound `O=S(=O)(c1ccc(C2CNC2)cc1)N1CCC(Nc2ncc(C(F)(F)F)c(O[C@H]3CCOC3)n2)CC1` [Compound 131], the half-inhibitory concentration (IC50) at CDK6 was 0.5 to 2.5 nM; on CDK2, less than 0.5 nM; at CDK4 it was 0.5 to 2.5 nM; on CDK1, 2.5 to 10 nM; on CDK9, 100 to 1000 nM; at CDK7, 2.5 to 10 nM.

Regarding `O=S(=O)(c1ccc(N2CC[C@H](O)C2)cc1)N1CCC(Nc2ncc(C(F)(F)F)c(O[C@H]3CCOC3)n2)CC1` [Compound 141], the IC50 at CDK6 was 0.5 to 2.5 nM; on CDK2 it was less than 0.5 nM; at CDK4, 0.5 to 2.5 nM; on CDK1, 2.5 to 10 nM; at CDK9, 100 to 1000 nM; at CDK7 it was 10 to 50 nM.

As for `Cn1cc(S(=O)(=O)N2CCC(Nc3ncc(C#N)c(N[C@@H]4CCC[C@H]4O)n3)CC2)cn1` [Compound 45], the IC50 is 100 to 1000 nM at CDK6, 2.5 to 10 nM on CDK2, 10 to 50 nM at CDK4 and 10 to 50 nM at CDK1.

On to `C[C@@H]1CN(c2ccc(S(=O)(=O)N3CCC(Nc4ncc(C(F)(F)F)c(O[C@H]5CCOC5)n4)CC3)cn2)C[C@H](C)N1` [Example 117], for which the half-inhibitory concentration (IC50) on CDK6 was 0.5 to 2.5 nM; on CDK2, less than 0.5 nM; at CDK4 it was less than 0.5 nM; at CDK1, 2.5 to 10 nM; on CDK9, 100 to 1000 nM; on CDK7, 2.5 to 10 nM.

As to `CS(=O)(=O)N1CCC(Nc2ncc(C(F)(F)F)c(NC3CCCC3)n2)CC1` [Example 5, N^4-Cyclopentyl-N^2-(1-(methylsulfonyl)piperidin-4-yl)-5-(trifluoromethyl)pyrimidine-2,4-diamine], the IC50 fell in the range of 10 to 50 nM at CDK6; 2.5 to 10 nM at CDK2; 10 to 50 nM on CDK4; 100 to 1000 nM on CDK1; 100 to 1000 nM on CDK9; 10 to 50 nM at CDK7.

As for `CS(=O)(=O)N1CCC(Nc2ncc(C#N)c(NC3CCCC3)n2)CC1` [Example 1], the 50% inhibitory concentration (IC50) on CDK6 was 10 to 50 nM; at CDK2 it was 10 to 50 nM; at CDK4, 10 to 50 nM; on CDK1 it was 100 to 1000 nM.

Turning to `Cn1cc(S(=O)(=O)N2CCC(Nc3ncc(C#N)c(N[C@H]4CC[C@@H](O)C4)n3)CC2)cn1` (racemic) [Example 11], the 50% inhibitory concentration (IC50) lay in the range of 10 to 50 nM at CDK6, 0.5 to 2.5 nM on CDK2, 10 to 50 nM at CDK4 and 10 to 50 nM at CDK1.

Turning to `CC(C)Nc1nc(NC2CCN(S(C)(=O)=O)CC2)ncc1C#N` [Compound 28], the concentration for half-maximal inhibition (IC50) at CDK6 was in the range of 50 to 100 nM; on CDK2, 10 to 50 nM; at CDK4 it was 50 to 100 nM; at CDK1, 100 to 1000 nM.

As to `Cn1cc(-c2ccc(S(=O)(=O)N3CCC(Nc4ncc(C#N)c(NC5CCCC5)n4)CC3)cc2)cn1` [Compound 49], the concentration for half-maximal inhibition (IC50) on CDK6 lay in the range of 0.5 to 2.5 nM; on CDK2, 0.5 to 2.5 nM; on CDK4, 2.5 to 10 nM; at CDK1 it was 10 to 50 nM.

Consider `COc1cc(S(=O)(=O)N2CCC(Nc3ncc(C(F)(F)F)c(O[C@H]4CCOC4)n3)CC2)ccc1C1=CCNCC1` [Compound 194], for which the concentration for half-maximal inhibition (IC50) on CDK6, at CDK2 and on CDK4 was 0.5 to 2.5 nM each time.

Regarding `O=S(=O)(c1ccc(C2=CCNCC2)cc1)N1CCC(Nc2ncc(C(F)(F)F)c(NC3CCCC3(F)F)n2)CC1` (centres unmarked) [Compound 136], the results for the half-maximal inhibitory concentration (IC50) at CDK6, at CDK2 and on CDK4 were 0.5 to 2.5 nM, 0.5 to 2.5 nM and 2.5 to 10 nM, respectively.

As for `O=S(=O)([C@@H]1CCCNC1)N1CCC(Nc2ncc(C(F)(F)F)c(NC3CCCC3)n2)CC1` [Compound 162], the IC50 at CDK6 fell in the range of 10 to 50 nM; on CDK2, 2.5 to 10 nM; on CDK4, 2.5 to 10 nM.

Regarding `N#Cc1cnc(NC2CCN(S(=O)(=O)c3ccc(C4CCNCC4)cc3)CC2)nc1NC1CCCC1` [Compound 101], the IC50 on CDK6, at CDK2 and on CDK4 was 0.5 to 2.5 nM throughout.

For `O=S(=O)(c1ccc(N2CCNCC2)c(F)c1)N1CCC(Nc2ncc(C(F)(F)F)c(O[C@H]3CCOC3)n2)CC1` [Compound 172], the IC50 on CDK6, on CDK2 and on CDK4 was 0.5 to 2.5 nM throughout.

Take `Cn1cc(S(=O)(=O)N2CCC(Nc3ncc(C#N)c(N(C4CCCC4)C4CC4)n3)CC2)cn1` [Compound 82]: the half-inhibitory concentration (IC50) lay within 0.5 to 2.5 nM at CDK6, 0.5 to 2.5 nM at CDK2 and 2.5 to 10 nM on CDK4.

For the compound `N#Cc1cnc(NC2CCN(S(=O)(=O)c3ccc(C4=CCNCC4)cc3)CC2)nc1N[C@H]1CCOC1` [Compound 92], the 50% inhibitory concentration (IC50) on CDK6 lay in the range of 0.5 to 2.5 nM; on CDK2, 2.5 to 10 nM; on CDK4, 2.5 to 10 nM.

In the case of `Cc1cc(S(=O)(=O)N2CCC(Nc3ncc(C(F)(F)F)c(O[C@H]4CCOC4)n3)CC2)ccc1C1CCCNC1` (some centres unmarked) [Compound 192], the half-maximal inhibitory concentration (IC50) on CDK6 is 0.5 to 2.5 nM; on CDK2, less than 0.5 nM; at CDK4, 0.5 to 2.5 nM.

For `C[C@@H]1CN(c2ccc(S(=O)(=O)N3CCC(Nc4ncc(C(F)(F)F)c(O[C@H]5CCOC5)n4)CC3)cc2)C[C@H](C)N1` [Example 169], the results for the half-inhibitory concentration (IC50) at CDK6, at CDK2 and at CDK4 were 0.5 to 2.5 nM, less than 0.5 nM and 0.5 to 2.5 nM, respectively.

`O=S(=O)(c1ccc(C2CNC2)c(F)c1)N1CCC(Nc2ncc(C(F)(F)F)c(O[C@H]3CCOC3)n2)CC1` [Compound 160]: the figures for the concentration for half-maximal inhibition (IC50) at CDK6, on CDK2 and on CDK4 were 0.5 to 2.5 nM, 0.5 to 2.5 nM and 2.5 to 10 nM, respectively.

Consider `O=S(=O)(c1ccc(C2=CCNCC2)c(F)c1)N1CCC(Nc2ncc(C(F)(F)F)c(O[C@H]3CCOC3)n2)CC1` [Compound 121], for which the IC50 is 0.5 to 2.5 nM on CDK6, less than 0.5 nM at CDK2 and 0.5 to 2.5 nM at CDK4.

Regarding `Cn1cc(-c2ccc(S(=O)(=O)N3CCC(Nc4ncc(C#N)c(N[C@@H]5CC[C@H](O)C5)n4)CC3)cc2)cn1` (single isomer, unassigned) [Compound 87], the IC50 at CDK6, at CDK2 and at CDK4 was 0.5 to 2.5 nM throughout.

Turning to `O=S(=O)(c1ccc(N2CC[C@@H](O)C2)cc1)N1CCC(Nc2ncc(C(F)(F)F)c(O[C@H]3CCOC3)n2)CC1` [Compound 140], the IC50 on CDK6, at CDK2 and on CDK4 was 0.5 to 2.5 nM in each case.

Turning to `C[C@H]1CN(c2ccc(S(=O)(=O)N3CCC(Nc4ncc(C(F)(F)F)c(O[C@H]5CCOC5)n4)CC3)cn2)CCN1` [Compound 188], the values for the half-inhibitory concentration (IC50) at CDK6, at CDK2 and at CDK4 were 0.5 to 2.5 nM, less than 0.5 nM and 0.5 to 2.5 nM, respectively.
